Source: ChEMBL document CHEMBL4351025, “Indole-nitroimidazole conjugates as efficient manipulators to decrease the genes expression of methicillin-resistant Staphylococcus aureus” (Eur J Med Chem, 2019)
In brackets after ≈: the same amount, converted by molar mass.

How the values were obtained:
Format in all cases: functional
[1] = tested on: Klebsiella pneumoniae; assay: Antibacterial activity against Klebsiella pneumoniae incubated for 24 hrs by two fold serial dilution method
[2] = tested on: Staphylococcus aureus; assay: Antibacterial activity against Staphylococcus aureus ATCC 29213 incubated for 24 hrs by two fold serial dilution method; conditions: ATCC 29213, 24 h
[3] = tested on: Staphylococcus aureus; assay: Antibacterial activity against methicillin-resistant Staphylococcus aureus N315 incubated for 24 hrs by two fold serial dilution method; conditions: N315, 24 h
[4] = tested on: Escherichia coli; assay: Antibacterial activity against Escherichia coli incubated for 24 hrs by two fold serial dilution method
[5] = tested on: Enterococcus faecalis; assay: Antibacterial activity against Enterococcus faecalis incubated for 24 hrs by two fold serial dilution method
[6] = tested on: Pseudomonas aeruginosa; assay: Antibacterial activity against Pseudomonas aeruginosa incubated for 24 hrs by two fold serial dilution method
[7] = tested on: Acinetobacter baumannii; assay: Antibacterial activity against Acinetobacter baumannii incubated for 24 hrs by two fold serial dilution method
[8] = tested on: Enterococcus faecalis; assay: Potency index, ratio of MIC for norfloxacin to test compound MIC for antibacterial activity against Enterococcus faecalis

Row | Compound | MIC [1] [µg/mL] | MIC [2] [µg/mL] | MIC [3] [µg/mL] | MIC [4] [µg/mL] | MIC [5] [µg/mL] | MIC [6] [µg/mL] | MIC [7] [µg/mL] | Ratio [8]
1 | CC(=O)/C(=C/c1cn(CC(=O)N2CCN(Cc3ccc(F)cc3)CC2)c2cc(C)ccc12)n1cc([N+](=O)[O-])nc1C | 512 (≈ 917 µM) | 512 (≈ 917 µM) | 2 (≈ 3.58 µM) | 512 (≈ 917 µM) | 64 (≈ 115 µM) | 128 (≈ 229 µM) | 512 (≈ 917 µM) | 
2 | CC(=O)/C(=C/c1cn(CC(=O)N2CCCC2)c2ccccc12)n1cc([N+](=O)[O-])nc1C | 16 (≈ 38 µM) | 64 (≈ 152 µM) | 64 (≈ 152 µM) | 8 (≈ 19 µM) | 64 (≈ 152 µM) | 2 (≈ 4.75 µM) | 1 (≈ 2.37 µM) | 
3 | CC(=O)/C(=C/c1cn(CC(=O)N2CCN(Cc3ccc(F)cc3)CC2)c2ccccc12)n1cc([N+](=O)[O-])nc1C | 16 (≈ 29.4 µM) | 8 (≈ 14.7 µM) | 32 (≈ 58.8 µM) | 16 (≈ 29.4 µM) | 2 (≈ 3.67 µM) | 32 (≈ 58.8 µM) | 32 (≈ 58.8 µM) | 2
4 | CC(=O)/C(=C/c1cn(CC(=O)N2CCCCC2)c2cc(Cl)ccc12)n1cc([N+](=O)[O-])nc1C | 64 (≈ 136 µM) | 512 (≈ 1090 µM) | 64 (≈ 136 µM) | 64 (≈ 136 µM) | 4 (≈ 8.51 µM) | 256 (≈ 545 µM) | 512 (≈ 1090 µM) | 
5 | CC(=O)/C(=C/c1cn(CC(=O)N2CCCCC2)c2cc(C)ccc12)n1cc([N+](=O)[O-])nc1C | 32 (≈ 71.2 µM) | 16 (≈ 35.6 µM) | 1 (≈ 2.22 µM) | 256 (≈ 570 µM) | 128 (≈ 285 µM) | 32 (≈ 71.2 µM) | 256 (≈ 570 µM) | 
6 | NC1CCN(c2c(F)cc3c(=O)c(C(=O)O)cn(C4CC4)c3c2Cl)C1 (stereo unspecified) [CLINAFLOXACIN] | 32 (≈ 87.5 µM) | 0.5 (≈ 1.37 µM) | 16 (≈ 43.7 µM) | 64 (≈ 175 µM) | 2 (≈ 5.47 µM) | 32 (≈ 87.5 µM) | 16 (≈ 43.7 µM) | 
7 | CC(=O)/C(=C/c1cn(CC(=O)N2CCOCC2)c2ccccc12)n1cc([N+](=O)[O-])nc1C | 16 (≈ 36.6 µM) | 64 (≈ 146 µM) | 2 (≈ 4.57 µM) | 32 (≈ 73.2 µM) | 32 (≈ 73.2 µM) | 128 (≈ 293 µM) | 256 (≈ 585 µM) | 
8 | CC(=O)/C(=C/c1cn(CC(=O)N2CCN(Cc3ccc(Cl)cc3Cl)CC2)c2ccccc12)n1cc([N+](=O)[O-])nc1C | 128 (≈ 215 µM) | 256 (≈ 430 µM) | 64 (≈ 107 µM) | 512 (≈ 860 µM) | 128 (≈ 215 µM) | 256 (≈ 430 µM) | 256 (≈ 430 µM) | 
9 | CC(=O)Cn1cc(/C=C(/C(C)=O)n2cc([N+](=O)[O-])nc2C)c2ccccc21 | 2 (≈ 5.46 µM) | 256 (≈ 699 µM) | 0.5 (≈ 1.36 µM) | 8 (≈ 21.8 µM) | 16 (≈ 43.7 µM) | 512 (≈ 1400 µM) | 128 (≈ 349 µM) | 
10 | C=CCn1cc(/C=C(/C(C)=O)n2cc([N+](=O)[O-])nc2C)c2ccccc21 | 32 (≈ 91.3 µM) | 4 (≈ 11.4 µM) | 32 (≈ 91.3 µM) | 32 (≈ 91.3 µM) | 64 (≈ 183 µM) | 16 (≈ 45.7 µM) | 16 (≈ 45.7 µM) | 
